Values joined by “and” are separate entries in the source; they are usually repeats but may differ in a detail not shown here. Equal entries are not always repeated.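 The compound was tested at five concentrations on cells cultured in 96-well plates, with a 48-hour exposure period. GI50 = concentration required for 50% inhibition of growth. TGI marks complete inhibition of growth.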
Legend:
Assay in all cases: NCI-60 cell line screen, 48 h
UACC-257 melanoma = system: UACC-257 melanoma
K-562 leukemia = system: K-562 leukemia
MCF7 breast = system: MCF7 breast
NCI-H23 lung = system: NCI-H23 lung
MDA-MB-231 breast = system: MDA-MB-231 breast
SNB-75 CNS = system: SNB-75 CNS
SR leukemia = system: SR leukemia
UACC-62 melanoma = system: UACC-62 melanoma
SK-OV-3 ovarian = system: SK-OV-3 ovarian
OVCAR-5 ovarian = system: OVCAR-5 ovarian

| Structure (SMILES) | TGI (UACC-257 melanoma) | TGI (K-562 leukemia) | TGI (MCF7 breast) | TGI (NCI-H23 lung) | TGI (MDA-MB-231 breast) | TGI (SNB-75 CNS) | TGI (SR leukemia) | TGI (UACC-62 melanoma) | TGI (SK-OV-3 ovarian) | TGI (OVCAR-5 ovarian) | GI50 (UACC-257 melanoma) | GI50 (K-562 leukemia) | GI50 (MCF7 breast) | GI50 (NCI-H23 lung) | GI50 (MDA-MB-231 breast) | GI50 (SNB-75 CNS) | GI50 (SR leukemia) | GI50 (UACC-62 melanoma) | GI50 (SK-OV-3 ovarian) | GI50 (OVCAR-5 ovarian) |
| --- | --- | --- | --- | --- | --- | --- | --- | --- | --- | --- | --- | --- | --- | --- | --- | --- | --- | --- | --- | --- |
| C=CC(C)(O)/C=C/C=C(\C)C(CC1OC1(C)C)OC(=O)/C(C)=C\C (centres undefined) | > 100 µM | > 100 µM | > 100 µM | > 100 µM | > 100 µM | > 100 µM | > 100 µM | > 100 µM | > 100 µM | > 100 µM |  |  |  |  |  |  |  |  |  |  |
| COC1CCC(O)C(/C=C/[N+](=O)[O-])C1 (centres undefined) | 5.48 µM | 22 µM | 12.9 µM | 16.6 µM | 18.1 µM | 21.5 µM | 5.43 µM | 19.3 µM | 22.6 µM | 21.5 µM |  |  |  |  |  |  |  |  |  |  |
| O=P(NC12CC3CC(CC(C3)C1)C2)(N1CC1)N1CC1 | > 100 µM | > 100 µM | > 100 µM | > 63.8 µM | > 100 µM | > 100 µM | > 91.4 µM | > 72.2 µM | > 100 µM | > 100 µM |  |  |  |  |  |  |  |  |  |  |
| CN1CCN(c2ccc3nc(-c4c(N)c5c(F)cccc5[nH]c4=O)[nH]c3c2)CC1 | 3.26 µM and 2.39 µM and 8.32 µM | 2.62 µM and 2.32 µM and 4.91 µM | 2.78 µM and > 4.82 µM and 6.76 µM | 6.44 µM and > 3.6 µM and 11.1 µM | 5 µM and > 4.19 µM and 8.57 µM | 2.64 µM and 8.04 µM and 5.68 µM | 10.2 µM and 1.44 µM and 7.97 µM | 6.05 µM and > 2.9 µM and 10 µM |  | 3.94 µM and > 6.96 µM and 6.94 µM | 1.69 µM and 0.83 µM and 2.54 µM | 0.598 µM and 0.528 µM and 0.932 µM | 0.875 µM and 0.71 µM and 1.21 µM | 1.53 µM and 0.9 µM and 2.05 µM | 1.32 µM and 1.14 µM and 2.05 µM | 0.695 µM and 0.399 µM and 0.994 µM | 0.472 µM and 0.284 µM and 0.502 µM | 1.19 µM and 1.28 µM and 2.13 µM | 0.379 µM and 0.487 µM and 0.515 µM | 1.42 µM and 1.03 µM and 1.76 µM |
| CN(N=O)C(=O)N[C@@H](C=O)[C@@H](O)[C@H](O)[C@H](O)CO | > 750 µM | 560 µM and > 750 µM | > 633 µM | > 750 µM | > 750 µM | > 750 µM | > 750 µM | > 750 µM | 622 µM and > 750 µM | > 750 µM | > 750 µM | > 750 µM |  | > 750 µM |  | 696 µM |  | > 750 µM | > 750 µM | > 750 µM |
| O=C(Nc1ccc(Oc2ccc3nc(NC(=O)c4ccccc4)[nH]c3c2)cc1)Nc1cc(C(F)(F)F)ccc1F | 11.3 µM | > 7.59 µM | 5.14 µM | 13 µM | > 22.9 µM | 10 µM | 20.2 µM | 4.01 µM | 16.5 µM | > 25 µM | 1.39 µM | 0.262 µM | 0.758 µM | 0.93 µM | 2.05 µM | 1.3 µM | 3.09 µM | 0.818 µM | 4.38 µM | 4.41 µM |
| c1ccc(-c2cc(C3CO3)c3ccccc3n2)cc1 (centres undefined) | 42.7 µM | 93.1 µM | 47.8 µM | 37.5 µM | 51.7 µM | 62.6 µM | 45.3 µM | 33.7 µM | > 100 µM | 40.5 µM |  |  |  |  |  |  |  |  |  |  |
| CN=C(NC#N)NCCSCc1nc[nH]c1C | > 100 µM | > 100 µM | > 100 µM | > 100 µM | > 100 µM | 79.3 µM | > 100 µM | > 100 µM | > 100 µM | > 100 µM |  |  |  |  |  |  |  |  |  |  |
| CN(C)c1ccc(/C=C(\C#N)c2nc3ccccc3n2C)cc1 | > 100 µM | 10.8 µM | > 76 µM | > 88.5 µM | > 100 µM | > 31.3 µM | > 100 µM | 37.2 µM | 71.3 µM | 49.8 µM | 20.2 µM | 0.249 µM | 0.612 µM | 4.51 µM | 5.41 µM | 2.54 µM | 0.279 µM | 2.04 µM | 4.09 µM | 8.49 µM |
| O=C1C2=Nc3ccccc3C(O)N2c2ccccc21 (centres undefined) | 16.5 µM | > 100 µM | > 100 µM | 28.8 µM | > 100 µM | 90.4 µM | > 100 µM | 12.9 µM | > 100 µM | > 100 µM |  |  |  |  |  |  |  |  |  |  |
| O=C([O][Hg][CH2]C1COC([CH2][Hg][O]C(=O)c2ccccc2)CO1)c1ccccc1 (centres undefined) | 28.1 µM and 3.98 µM | 2.87 µM | 19.8 µM and 2.87 µM | 23.3 µM | 41.9 µM and 16.4 µM | 31.9 µM and 23.4 µM | > 22.6 µM | 30.4 µM and 5.09 µM | 31.4 µM | 31.9 µM | 14.8 µM and 1.98 µM | 0.648 µM and 0.945 µM | 3.69 µM and 1.16 µM | 9.82 µM | 19.3 µM and 4.48 µM | 17.6 µM and 4.32 µM | 2.83 µM and 1.65 µM | 16.7 µM and 2.26 µM | 17.6 µM | 18 µM |
| Cc1ccc(Nc2n[nH]c(=S)s2)cc1 | > 100 µM | > 100 µM | > 100 µM | > 100 µM | > 100 µM | > 100 µM | > 100 µM | > 100 µM | > 100 µM | > 100 µM |  |  |  |  |  |  |  |  |  |  |
| O=C(c1ccco1)c1nc2cc(F)ccc2[n+]([O-])c1C(F)(F)F | 67.3 µM | 47.9 µM | > 100 µM | 42.7 µM | 60.5 µM | 86.6 µM | 60.9 µM | 68.2 µM | > 100 µM | 90.6 µM | 22.5 µM | 9.59 µM | 56.2 µM | 19.1 µM | 22.6 µM | 24.5 µM | 17.4 µM | 24.8 µM | 35.3 µM | 26.7 µM |
| N#Cc1ccc(N2Cc3ccccc3OC3=C2C(=O)c2c(O)ccc(O)c2C3=O)cc1 | 0.818 µM |  | 2.66 µM | 4.2 µM | 0.994 µM | 2.68 µM |  | 0.667 µM | 11.9 µM | 1.58 µM | 0.258 µM | 0.071 µM | 0.329 µM | 1.32 µM | 0.242 µM | 0.66 µM | 0.0563 µM | 0.24 µM | 2.99 µM | 0.437 µM |
| CCN1C(=O)NC(=O)C(C)(N2C(=O)c3c(F)c(F)c(F)c(F)c3C2=O)C1=O (centres undefined) | 14 µM | 3.71 µM | 13.5 µM | 17.7 µM | 9.13 µM | 11.1 µM | 2.22 µM | 9.57 µM | 24.6 µM | 14.8 µM | 4.26 µM | 1.66 µM | 2.77 µM | 3.92 µM | 2.66 µM | 2.96 µM | 0.444 µM | 2.75 µM | 10.1 µM | 3.82 µM |
| COc1ccc(-c2nn(-c3cccc(NC(=O)c4ccc5c(c4)OCCO5)c3)cc2-c2ccncc2)cc1Cl | 20.5 µM | 15.9 µM | 10.9 µM | 21.3 µM | 12.2 µM | 3.5 µM | 5.66 µM | 15.9 µM | > 100 µM | 29.8 µM | 3.17 µM | 0.71 µM | 1.99 µM | 2.71 µM | 2.11 µM | 0.602 µM | 1.1 µM | 1.46 µM | 3.82 µM | 5.19 µM |
| CCOC(=O)c1c2c(n(Cc3ccccc3)c1C)-c1ccccc1C(=O)C2=O | 69.2 µM | > 100 µM | 20.9 µM | 27 µM | 27.9 µM | 24.7 µM | 19 µM | 34.2 µM | 37.2 µM | 40.4 µM | 28.4 µM | 17.1 µM | 5.23 µM | 12.1 µM | 13.1 µM | 10.7 µM | 3.39 µM | 17.8 µM | 19.8 µM | 15.5 µM |
